In patent US12721853B2, “Applications of CX-5461 in treating immune rejection in renal transplantation” (Sun Yat-sen University, priority 2022, dated 2026):
pIC50: −log10 of the molar value.

Tests used:
[1] = test system: IL-6, IL-10, IL-17A cytokines in spleen; test: Real-time RT-PCR of cytokines in spleen after renal transplantation; type: in vivo, rat; conditions: seventh day after renal transplantation, compared with AR group, ***P<0.001
Description: (§1) • (1) Lewis male rats and Brown Norway male rats are purchased from Beijing Vital River Laboratory Animal Technology Co., Ltd., with weight of around 200 g and age of 6-8 weeks old, and the rearing environment is of SPF level. • (2) Establishment of acute rejection model after renal transplantation in rats: the donor of Brown Norway male rats aged 6-8 weeks, about 200 g, is transplanted into Lewis male rats, and the surgical scheme is end-to-end renal vein anastomosis as reported in most literatures. The experimental groups are divided into normal group (Control) of donor rats, acute rejection (AR) group and drug group (CX5461 of 2 mg/kg) with 5 rats each. After successful renal transplantation, the rats are killed at 3 days, 5 days and 7 days after operation, and blood is collected from the lower abdominal aorta by using a 5 mL sterile syringe. The collected blood is placed in a procoagulants tube at room temperature for 1 h, centrifuged at 4000 r/min in a centrifuge at 4° C. for 10 min, and the obtained serum is packaged in an EP tube and frozen at −80° C. for enzyme-linked immunosorbent assay (ELISA) detection. […] Subsequently, the concentration and purity of total RNA are measured using a Nanodrop. Using the RNA as a template, reverse transcription is performed by reverse transcription kit of Beijing TransGen Biotech Company to obtain a cDNA template, and quantitative PCR analysis is carried out by using this cDNA as a template and using TransGen qPCR kit according to the instructions and the detection primers shown in Table 1 below.

[2] = test system: IL-6, IL-10 cytokines in serum; test: ELISA of cytokines in serum after renal transplantation; type: in vivo, rat; conditions: seventh day after renal transplantation, compared with AR group, ***P<0.001
Description: as §1, with “syringe.” for “syringe. The collected blood is placed in a procoagulants tube at room temperature for 1 h, centrifuged at 4000 r/min in a centrifuge at 4° C. for 10 min, and the obtained serum is packaged in an EP tube and frozen at −80° C. for enzyme-linked immunosorbent assay (ELISA) detection.”, “below. […]” for “below.”

Pol II = conditions: cited from earlier work
renal implants = test: Appearance of the kidney graft, acute rejection model after renal transplantation in rats; type: in vivo, rat; conditions: seventh day after renal transplantation, CX5461 of 2 mg/kg, compared with acute rejection group (AR)
Description: as §1, with “syringe.” for “syringe. The collected blood is placed in a procoagulants tube at room temperature for 1 h, centrifuged at 4000 r/min in a centrifuge at 4° C. for 10 min, and the obtained serum is packaged in an EP tube and frozen at −80° C. for enzyme-linked immunosorbent assay (ELISA) detection.”

[3] = test system: Pol I-driven rRNA transcription; conditions: cited from earlier work
[4] = Creatinine and urea nitrogen levels in blood after renal transplantation; type: in vivo, rat
Description: • (1) Lewis male rats and Brown Norway male rats are purchased from Beijing Vital River Laboratory Animal Technology Co., Ltd., with weight of around 200 g and age of 6-8 weeks old, and the rearing environment is of SPF level. • (2) Establishment of acute rejection model after renal transplantation in rats: the donor of Brown Norway male rats aged 6-8 weeks, about 200 g, is transplanted into Lewis male rats, and the surgical scheme is end-to-end renal vein anastomosis as reported in most literatures. The experimental groups are divided into normal group (Control) of donor rats, acute rejection (AR) group and drug group (CX5461 of 2 mg/kg) with 5 rats each. […] The collected blood is placed in a procoagulants tube at room temperature for 1 h, centrifuged at 4000 r/min in a centrifuge at 4° C. for 10 min, and the obtained serum is packaged in an EP tube and frozen at −80° C. for enzyme-linked immunosorbent assay (ELISA) detection. The removed transplanted kidney is cut in half along the longitudinal axis and soaked in 4% paraformaldehyde for pathological reaction verification. • (3) Real-time RT-PCR analysis: RNA is extracted from rat spleen by using Trizol method, and the specific operation is as follows: 1 mL of Trizol is added to the EP tube containing rat spleen and placed in the refrigerator at 4° C. for 10 min; then, porcelain beads are added into it and put into an automatic grinder, and ground at 4° C. for 5 min; 0.2 mL chloroform (i.e., ⅕ Trizol volume) is added into the EP tube, followed by shaking vigorously for about 20 times, then centrifuging at 12,500 rpm at 4° C. for 15 min; the obtained upper aqueous phase is placed in a new EP tube and carefully aspirated about 3 times with a 200 μL gun tip, and approximately an equal volume of isopropanol (i.e., 600 μL) is added, and the RNA is precipitated by centrifugation at 12,500 rpm for 15 min at 4° C., at which time a white RNA precipitate is seen. Then, 1 ml of 75% ethanol is added for washing twice, followed by centrifugation at 12500 rpm and 4° C. for 5 min. The supernatant is discarded and the precipitated RNA is allowed to dry naturally in an ultra-clean bench. RNA is obtained by dissolving the RNA precipitate with 100 μL of Rnase-free water. Subsequently, the concentration and purity of total RNA are measured using a Nanodrop. Using the RNA as a template, reverse transcription is performed by reverse transcription kit of Beijing TransGen Biotech Company to obtain a cDNA template, and quantitative PCR analysis is carried out by using this cDNA as a template and using TransGen qPCR kit according to the instructions and the detection primers shown in Table 1 below.

[5] = Survival of rats after renal transplantation; type: in vivo, rat; conditions: compared with acute rejection group
Description: as §1, with “syringe.” for “syringe. The collected blood is placed in a procoagulants tube at room temperature for 1 h, centrifuged at 4000 r/min in a centrifuge at 4° C. for 10 min, and the obtained serum is packaged in an EP tube and frozen at −80° C. for enzyme-linked immunosorbent assay (ELISA) detection.”

transplanted kidney = test: H&E staining and immunohistochemical staining (anti-IL-17A) of transplanted kidney; type: in vivo, rat; conditions: seventh day after renal transplantation
Treg cells in the spleen = test: CD4+CD25+Foxp3+ flow cytometry of spleen; type: in vivo, rat; conditions: seventh day after renal transplantation
[6] = third, fifth and seventh day after renal transplantation, AR group continues to increase
[7] = within 42 days after renal transplantation

SMILES: Cc1cnc(CNC(=O)c2c(=O)c3ccc(N4CCCN(C)CC4)nc3n3c2sc2ccccc23)cn1 [CX-5461]
- IL-6 cytokine in spleen [1]: significantly down-regulated
- IL-10 cytokine in spleen [1]: significantly up-regulated
- IL-17A cytokine in spleen [1]: significantly down-regulated
- IL-6 cytokine in serum [2]: significantly down-regulated
- IL-10 cytokine in serum [2]: up-regulated
- effect on Pol II (Pol II): no effect
- inflammatory immune infiltration, appearance of the kidney graft (renal implants): no obvious inflammatory immune infiltration
- renal fibrosis, appearance of the kidney graft (renal implants): less renal fibrosis
- pIC50 ([3]; HCT-116, A375, and MIA PaCa-2 cells, read-out: IC50, inhibition of Pol I-driven rRNA transcription): 6.85
- selectivity of rRNA transcription inhibition over DNA replication and protein translation [3]: 250- to 300 fold
- creatinine level [4, 6]: remain at a low level
- urea nitrogen level [4, 6]: remain at a low level
- creatinine level [4, 7]: remain at a relatively low level
- urea nitrogen level [4, 7]: remain at a relatively low level
- survival time of rats after renal transplantation [5]: significantly longer
- IL-17A cytokine in kidney transplant (immunohistochemistry) (transplanted kidney): reducing the levels of IL-17A cytokine
- changes in renal tubules (H&E staining) (transplanted kidney): no obvious changes in renal tubules
- glomerulus shrinkage (H&E staining) (transplanted kidney): no obvious shrinkage
- infiltration of inflammatory cells (staining) (transplanted kidney): no obvious infiltration of inflammatory cells
- renal fibrosis (staining) (transplanted kidney): reduced renal fibrosis
- proportion of Treg cells (CD4+CD25+Foxp3+) in the spleen (Treg cells in the spleen): obviously increased
